Structures are written as SMILES.

Among the data in patent publication US20060142287A1, “Use of a combination of dppe with other chemotherapeutic agents for the treatment of breast cancer” (priority 2002, published 2006) are median overall survival values, retold here.

The assay has as its system patients with metastatic and/or recurrent breast cancer. The assay is described as follows: Phase III clinical trial of DPPE/doxorubicin versus doxorubicin alone, overall survival. Type of assay: in vivo, human. The method, then:
In the treatment of stage I or II breast cancer, the diphenyl compound preferably is used in an amount of about 3 to about 10 mg/kg of patient, administered intravenously over a period of about 30 to about 90 minutes prior to administration of the chemotherapeutic agent(s) and continuing for the period of administration of the chemotherapeutic agent(s). In the specific Phase III clinical trial described herein conducted on patients with metastatic and/or recurrent breast cancer, there was employed 5.3 mg/kg of DPPE in the form of the base (equivalent to 6 mg/kg of DPPE in the form of its hydrochloride), administered intravenously as an aqueous solution thereof over 80 minutes, with the last twenty minutes being accompanied by infusion of the specific chemotherapeutic agent.
The chemotherapy agent active in breast cancer which is employed herein preferably is used in a total amount of about 50 to about 75 mg/M^2 of patient for doxorubicin or epirubicin, about 175 to about 225 mg/M^2 for Taxol and about 75 to about 100 mg/M^2 for Taxotere. In the specific Phase III clinical trial described herein conducted on patients with metastatic and/or recurrent breast cancer, there was employed 60 mg/M^2 of doxorubicin administered over the last 20 minutes of infusion of the DPPE solution.
Patients were treated with doxorubicin (DOX) alone or a combination of doxorubicin and DPPE. […]
The survival time for patients was determined for those patients with metastatic breast cancer receiving no prior chemotherapy treatment in relation to those who had received prior chemotherapy treatment, and for patients that had received no previous treatment type (namely, chemotherapy, radiotherapy and/or hormone treatment) and those who had received previous treatment. The survival times were determined for patients receiving the DPPE/DOX combination and DOX alone.

On to `COc1cccc2c1C(=O)c1c(O)c3c(c(O)c1C2=O)C[C@@](O)(C(=O)CO)C[C@@H]3O[C@H]1C[C@H](N)[C@H](O)[C@H](C)O1` [DOX, doxorubicin], for which the median overall survival amounted to 9.3 months (patients with metastatic disease who had estrogen receptor-negative tumors, FIG. 3); 16.2 months (patients with metastatic disease who had no previous chemotherapy, DPPE 5.3 mg/kg iv over 80 min, doxorubicin 60 mg/M^2 over last 20 min, FIG. 1); 15 months (patients with metastatic disease who had no previous treatment (chemotherapy, radiotherapy and/or hormone treatment), FIG. 2).
